Calls of active or inactive are those of the source. No cut-off for these calls is given here.
Columns and labels:
[1] = target: T1, Polyunsaturated fatty acid 5-lipoxygenase (Rattus norvegicus, UniProt P12527); experiment: Compound was evaluated for its inhibitory activity against 5-LO (5-lipoxygenase) in intact RBL-1 cell line assay; format: cell-based
T1 sequence (P12527 whole entry): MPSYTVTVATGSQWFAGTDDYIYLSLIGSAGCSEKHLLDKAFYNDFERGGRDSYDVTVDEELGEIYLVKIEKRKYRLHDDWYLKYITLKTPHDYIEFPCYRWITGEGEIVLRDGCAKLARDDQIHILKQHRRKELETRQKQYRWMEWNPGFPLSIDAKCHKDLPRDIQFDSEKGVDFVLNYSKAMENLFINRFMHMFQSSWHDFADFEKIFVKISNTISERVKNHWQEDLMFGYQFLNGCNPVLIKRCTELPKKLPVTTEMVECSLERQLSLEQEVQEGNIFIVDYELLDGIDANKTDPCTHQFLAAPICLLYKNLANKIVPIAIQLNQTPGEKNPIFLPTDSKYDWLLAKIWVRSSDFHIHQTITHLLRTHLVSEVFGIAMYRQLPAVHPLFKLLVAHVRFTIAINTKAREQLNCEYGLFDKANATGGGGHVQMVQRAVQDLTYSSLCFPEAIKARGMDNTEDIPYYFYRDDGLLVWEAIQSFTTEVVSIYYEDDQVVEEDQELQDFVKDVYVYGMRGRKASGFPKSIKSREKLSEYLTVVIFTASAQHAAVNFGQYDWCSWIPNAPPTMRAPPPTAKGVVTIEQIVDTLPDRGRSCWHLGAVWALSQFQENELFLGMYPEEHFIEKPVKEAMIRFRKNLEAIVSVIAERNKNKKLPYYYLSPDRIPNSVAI

Cyclooxygenase [2] = target: T2, Cyclooxygenase (Rattus norvegicus, UniProt P35355+Q63921); experiment: Compound was evaluated for its inhibitory activity against CO(cyclooxygenase) in intact RBL-1 cell line assay; format: cell-based
T2 sequence (P35355 whole entry): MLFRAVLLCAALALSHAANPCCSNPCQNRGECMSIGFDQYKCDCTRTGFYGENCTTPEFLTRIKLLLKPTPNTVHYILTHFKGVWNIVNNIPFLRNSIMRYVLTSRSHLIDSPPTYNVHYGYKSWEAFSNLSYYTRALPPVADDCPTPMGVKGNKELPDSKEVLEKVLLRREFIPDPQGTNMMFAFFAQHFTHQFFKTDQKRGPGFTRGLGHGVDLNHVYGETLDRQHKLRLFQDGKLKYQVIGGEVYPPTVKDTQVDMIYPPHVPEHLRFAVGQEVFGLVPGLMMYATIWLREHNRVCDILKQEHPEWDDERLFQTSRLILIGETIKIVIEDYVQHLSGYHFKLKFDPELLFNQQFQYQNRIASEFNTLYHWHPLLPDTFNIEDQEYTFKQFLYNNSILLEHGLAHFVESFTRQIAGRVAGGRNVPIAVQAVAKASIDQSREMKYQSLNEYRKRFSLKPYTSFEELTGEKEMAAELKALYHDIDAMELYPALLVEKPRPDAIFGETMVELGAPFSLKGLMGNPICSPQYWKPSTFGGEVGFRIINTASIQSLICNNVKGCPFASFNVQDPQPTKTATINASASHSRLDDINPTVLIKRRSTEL
T2 sequence (Q63921 whole entry): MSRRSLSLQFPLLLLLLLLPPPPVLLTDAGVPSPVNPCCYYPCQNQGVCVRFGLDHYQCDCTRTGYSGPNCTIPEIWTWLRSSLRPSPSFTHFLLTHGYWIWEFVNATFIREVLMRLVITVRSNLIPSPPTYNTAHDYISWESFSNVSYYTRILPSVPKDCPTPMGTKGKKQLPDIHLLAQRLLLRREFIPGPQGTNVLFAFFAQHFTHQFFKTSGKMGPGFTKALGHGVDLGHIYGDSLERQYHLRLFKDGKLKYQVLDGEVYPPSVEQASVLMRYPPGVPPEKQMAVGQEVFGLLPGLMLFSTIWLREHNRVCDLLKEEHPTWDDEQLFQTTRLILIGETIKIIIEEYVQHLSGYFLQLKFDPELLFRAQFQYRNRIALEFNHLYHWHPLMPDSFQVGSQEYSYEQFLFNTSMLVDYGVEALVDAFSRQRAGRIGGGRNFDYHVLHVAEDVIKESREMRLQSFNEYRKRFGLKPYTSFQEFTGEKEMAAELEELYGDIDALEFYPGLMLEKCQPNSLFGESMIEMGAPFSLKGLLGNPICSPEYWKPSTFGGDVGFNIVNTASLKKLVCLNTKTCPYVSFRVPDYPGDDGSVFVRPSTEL

[3] = target: T3, Polyunsaturated fatty acid 5-lipoxygenase (Rattus norvegicus) (UniProt P12527); experiment: Compound was evaluated for its inhibitory activity against 5-LO (5-lipoxygenase) at 10 uM concentration in intact RBL-1 cell line assay; Less than 5% inhibition at 10 uM reported as not active; format: cell-based
T3 sequence (whole entry): T1 sequence (P12527 whole entry)

[4] = target: T4, Cyclooxygenase (Rattus norvegicus) (UniProt P35355+Q63921); experiment: Compound was evaluated for its inhibitory activity against CO(cyclooxygenase) at 10 uM concentration in intact RBL-1 cell line assay; format: cell-based
[5] = target: T3, Polyunsaturated fatty acid 5-lipoxygenase (Rattus norvegicus); experiment: Compound was evaluated for its inhibitory activity against 5-LO (5-lipoxygenase) at 10 uM concentration in intact RBL-1 cell line assay; format: cell-based
[6] = target: T4, Cyclooxygenase (Rattus norvegicus); experiment: Compound was evaluated for its inhibitory activity against CO(cyclooxygenase) at 10 uM concentration in intact RBL-1 cell line assay; Less than 5% inhibition at 10 uM reported as not active; format: cell-based
Cyclooxygenase [7] = target: T2, Cyclooxygenase; experiment: Compound was evaluated for its inhibitory activity against CO(cyclooxygenase); format: protein assay

Q: For `COc1ccc2c(c1)c(CC(=O)O)c(C)n2C(=O)c1ccc(Cl)cc1` [INDOMETHACIN], which IC50 [1] is on record?
A: > 100000 nM

Q: `COc1ccc2c(c1)c(/C=C1/SC(=S)NC1=O)c(C)n2C(=O)c1ccc(Cl)cc1` was tested. Which IC50 [1] did it give?
A: 1400 nM

Q: What about the IC50 (Cyclooxygenase [2]) of the same molecule?
A: 2000 nM

Q: Which results are given for `Cc1ccc(Cl)c(Nc2ccccc2/C=C2\SC(=S)N(C)C2=O)c1Cl`?
A: inhibition [3]: inactive; inhibition [4]: 32%

Q: What does the source list for `Cc1ccc(Cl)c(Nc2ccccc2/C=C2\SC(=O)NC2=O)c1Cl`?
A: inhibition [5]: 30%; inhibition [6]: inactive

Q: For `Cc1ccc(Cl)c(Nc2ccccc2/C=C2\SC(NC#N)=NC2=O)c1Cl`, which IC50 [1] is on record?
A: 1500 nM

Q: What about the IC50 (Cyclooxygenase [2]) of the same molecule?
A: 10200 nM

Q: Which IC50 (Cyclooxygenase [7]) does the source give for `Cc1ccc(Cl)c(Nc2ccccc2/C=C2\SC(=S)NC2=O)c1Cl` here?
A: 6000 nM

Q: `Cc1ccc(Cl)c(Nc2ccccc2/C=C2\SC(N)=NC2=O)c1Cl` was tested. Which inhibition [5] did it give?
A: 35%

Q: What about the inhibition [4] of the same molecule?
A: 20%

Q: Which inhibition [4] does the source give for `Cc1ccc(Cl)c(Nc2ccccc2/C=C2\SC(=S)N(CC(=O)O)C2=O)c1Cl` here?
A: 33%

Source: ChEMBL document CHEMBL1126433 (Bioorg Med Chem Lett, 1992)
